Here are results for 8 compounds from paper PMC11489206, “Transport of perfluoroalkyl substances across human induced pluripotent stem cell-derived intestinal epithelial cells in comparison with primary human intestinal epithelial cells and Caco-2 cells” (Archives of Toxicology, 2024).

The structures appear in SMILES notation. Like-named read-outs stand apart in the source and are kept apart here. Marks after values point to notes of the source that are not given here.

For data set [1] the following is noted: ref Ayehunie et al. (2005); cited from earlier work.
The nature of data set [2]: Transport study across hiPSC-derived IEC layers. The conditions noted are these: human. Here is the method: For differentiation into IECs, definitive endoderm cells were subsequently differentiated into intestinal stem cells by changing medium into DMEM/F12 containing 2% fetal bovine serum, 1% GlutaMAX (Gibco) and 250 ng/ml FGF2 (R&D Systems). After 4 days, cells were dissociated using Accutase and seeded onto polyester Transwell inserts (0.4 µm, Corning) coated with Growth Factor Reduced Matrigel #356231. Cells were cultured for 7 days in intestinal differentiation medium (DMEM/F-12 containing 2% fetal bovine serum, 1% non-essential amino acids (Gibco), 1 × B27 (Gibco), 1 × N2 (Gibco), 1% penicillin/streptomycin (Gibco) and 2 mM L-glutamine (Gibco)) supplemented with 20 ng/ml EGF (R&D Systems) and 30 µM Forskolin (Sigma). ROCK inhibitor, y-27632 (final concentration 10 µM; Stem Cell Technologies), was added during the initial 24 h after seeding to reduce cell death. The cells were subsequently cultured for 12 days in intestinal differentiation medium supplemented with 20 ng/ml EGF, 30 µM Forskolin, 5 µM 5-aza-2′-deoxycytidine (Sigma), 20 µM PD98059 (Stem Cell Technologies) and 0.5 µM A-83–01 (Sigma). The medium was refreshed every 2–3 days. Barrier integrity was determined by measuring apical to basolateral translocation of Lucifer yellow (see Supplementary Data for a detailed description).
(§1) Transport studies were performed in Caco-2 cells, hiPSC-derived IECs and EpiIntestinal microtissues. To that end, Caco-2 cell layers were differentiated for 21 days and hiPSCs were differentiated into IEC layers for 26 days, as described above. EpiIntestinal microtissues were subjected to transport studies 1 day after arrival. […] For all models, PFAS transport was assessed in apical to basolateral, and basolateral to apical direction using HBSS containing a mixture of PFASs containing 1 µM of each PFAS. See Supplementary Data for a detailed description of the method used for the transport studies of the model compounds and PFASs.
Prior to exposure to the transport study compounds, the cells were washed with transport medium (HBSS; Sigma). […] 100 µL aliquots were collected from the basolateral compartment and replaced with the same volume HBSS at settled time points (0, 15, 30 and 60 min). For basolateral to apical transport in the EpiIntestinal microtissues, 0.2 mL HBSS was added to the apical compartment and 0.5 mL HBSS containing a mixture of PFASs containing 1 µM of each PFAS, was added to the basolateral compartment. 100 µL aliquots were collected from the apical compartment and replaced with the same volume of HBSS at settled time points (0, 15, 30 and 60 min). For apical to basolateral transport across the Caco-2 cell layers and hiPSC-derived IEC layers, 1.2 mL HBSS was added to the basolateral compartment and 0.4 mL HBSS containing either model compounds (10 µM) or a mixture of PFASs containing 1 µM of each PFAS, was added to the apical compartment. 100 µL aliquots were collected from the basolateral compartment and replaced with the same volume of HBSS at settled time points (0, 7.5, 15, 30 and 60 min for the model compounds with both models and the PFASs with the hiPSC-derived IEC layers and 0, 15, 30 and 60 min for PFASs with the Caco-2 cell layers). For basolateral to apical transport, 0.4 mL HBSS was added to the apical compartment and 1.2 mL HBSS containing 10 µM of the model compounds or a mixture of PFASs containing 1 µM of each PFAS, was added to the basolateral compartment. 100 µL aliquots were collected from the apical compartment and replaced with the same volume of HBSS at settled time points (0, 7.5, 15, 30 and 60 min for the model compounds with both models and the PFASs with the hiPSC-derived IEC layers and 0, 15, 30 and 60 min for PFASs with the Caco-2 cell layers).

A short description of data set [3]: Transport study across Caco-2 cell layers. To be noted: human, Caco-2. Here is the method: Human colorectal adenocarcinoma cells (Caco-2, HTB-37) were obtained from American Type Culture Collection (ATCC, Manassas, VA). Cells were cultured in a humidified incubator (37°C, 5% CO2) in Dulbecco’s modified Eagle’s medium (DMEM) supplemented with 10% heat-inactivated fetal bovine serum (Gibco, Thermo Fisher Scientific, Waltham, MA), 1% non-essential amino acids (Gibco) and 1% penicillin/streptomycin (Sigma). For experiments, Caco-2 cells below passage number 50 were used within 10 passages. They were harvested at 80% confluence using Trypsin/EDTA (0.25%/0.05%; PAN Biotech, Aidenbach, Germany) and seeded at a density of 4 × 10^5 cells/cm^2 into inserts with a polycarbonate membrane (0.4 µm pore, Corning, New York, NY). After 21 days of differentiation (using 500 µl cell culture medium in the apical and 1500 µl in the basolateral compartment), monolayer integrity was determined by measuring transepithelial electrical resistance (TEER) with a Millicell ERS Volt-Ohm meter (Millipore, Bedford, MA).
as §1
(§2) Prior to exposure to the transport study compounds, the cells were washed with transport medium (HBSS; Sigma). […] 100 µL aliquots were collected from the basolateral compartment and replaced with the same volume HBSS at settled time points (0, 15, 30 and 60 min). For basolateral to apical transport in the EpiIntestinal microtissues, 0.2 mL HBSS was added to the apical compartment and 0.5 mL HBSS containing a mixture of PFASs containing 1 µM of each PFAS, was added to the basolateral compartment. 100 µL aliquots were collected from the apical compartment and replaced with the same volume of HBSS at settled time points (0, 15, 30 and 60 min). For apical to basolateral transport across the Caco-2 cell layers and hiPSC-derived IEC layers, 1.2 mL HBSS was added to the basolateral compartment and 0.4 mL HBSS containing either model compounds (10 µM) or a mixture of PFASs containing 1 µM of each PFAS, was added to the apical compartment. 100 µL aliquots were collected from the basolateral compartment and replaced with the same volume of HBSS at settled time points (0, 7.5, 15, 30 and 60 min for the model compounds with both models and the PFASs with the hiPSC-derived IEC layers and 0, 15, 30 and 60 min for PFASs with the Caco-2 cell layers). For basolateral to apical transport, 0.4 mL HBSS was added to the apical compartment and 1.2 mL HBSS containing 10 µM of the model compounds or a mixture of PFASs containing 1 µM of each PFAS, was added to the basolateral compartment. 100 µL aliquots were collected from the apical compartment and replaced with the same volume of HBSS at settled time points (0, 7.5, 15, 30 and 60 min for the model compounds with both models and the PFASs with the hiPSC-derived IEC layers and 0, 15, 30 and 60 min for PFASs with the Caco-2 cell layers). After 60 minutes, all liquid was collected from the apical and basolateral compartment and the cells were lysed in 200 µL RIPA buffer (Thermo Fisher Scientific), and chemicals were quantified in the different compartments (apical, basolateral and cells) in order to calculate the mass balance.
(§3) The apparent permeability coefficient (Papp, cm/s) was calculated using the following equation: […]

Data set [4] can be described thus: Transport study across EpiIntestinal microtissues. To be noted: human. Here is the method:
The human EpiIntestinal small intestinal microtissues, consisting of epithelial cells and an underlying lamina propria containing intestinal fibroblasts, were obtained from MatTek Life Sciences (Ashland, USA). Cell culture inserts (8.8 mm ID) were placed in 12-well plates and cells were maintained in 100 µl maintenance medium (MatTek Life Sciences) in the apical compartment and 5 ml maintenance medium in the basolateral compartment upon arrival. The transport studies were performed 1 day after arrival.
as §1, §2, §3
where A is the surface area (cm^2), dQ is the amount of the compound transported (nmol) over the respective time interval dt (s) and C0 is the initial concentration in the donor compartment (µM).

The test system of the next data set is EpiIntestinal model. To be noted: apical to basolateral, ref Ayehunie et al. (2005); cited from earlier work.
Another data set concerns Caco-2 model. To be noted: cited from earlier work.

Turning to `CC(C)NCC(O)COc1ccc(CC(N)=O)cc1` (centres unmarked) [Atenolol, atenolol], the “Fa (fraction absorbed in humans)” value in data set [1] is listed as 50%.
With `O=S(=O)(O)C(F)(F)C(F)(F)C(F)(F)C(F)(F)C(F)(F)C(F)(F)F` [PFHxS, perfluorohexane sulfonate], in data set [2], the Papp A→B at 60 min, 1 µM came to 3.95 ± 0.47 ×10⁻⁶ cm/s; the Papp B→A at 60 min, 1 µM came out at 6.71 ± 0.43 ×10⁻⁶ cm/s; the efflux ratio at 60 min, 1 µM turned out to be 1.7. In data set [3], the Papp A→B at 60 min, 1 µM was determined as 8.78 ± 1.76 ×10⁻⁶ cm/s; the apparent permeability from basolateral to apical (Papp B→A) at 60 min, 1 µM is 11.6 ± 0.2 ×10⁻⁶ cm/s; the efflux ratio at 60 min, 1 µM amounted to 1.33. In data set [4], the Papp A→B at 60 min, 1 µM amounted to 12.5 ± 0.78 ×10⁻⁶ cm/s; the apparent permeability from basolateral to apical (Papp B→A) at 60 min, 1 µM turned out to be 14.1 ± 0.67 ×10⁻⁶ cm/s; the efflux ratio at 60 min, 1 µM is 1.13.
Consider `O=C(O)C(F)(F)C(F)(F)C(F)(F)C(F)(F)C(F)(F)C(F)(F)C(F)(F)C(F)(F)F` [PFNA, perfluorononanoic acid], for which, in data set [2], the Papp A→B at 60 min, 1 µM is 1.95 ± 0.27 ×10⁻⁶ cm/s; the Papp B→A at 60 min, 1 µM stood at 2.88 ± 0.28 ×10⁻⁶ cm/s; the efflux ratio at 60 min, 1 µM was 1.48. In data set [3], the Papp A→B at 60 min, 1 µM amounted to 4.55 ± 0.56 ×10⁻⁶ cm/s; the Papp B→A at 60 min, 1 µM is 3.14 ± 0.33 ×10⁻⁶ cm/s; the efflux ratio at 60 min, 1 µM came to 0.69. In data set [4], the Papp A→B at 60 min, 1 µM is 8.48 ± 0.57 ×10⁻⁶ cm/s; the Papp B→A at 60 min, 1 µM is 7.51 ± 0.5 ×10⁻⁶ cm/s; the efflux ratio at 60 min, 1 µM was 0.89.
`O=C(O)C(F)(F)C(F)(F)C(F)(F)C(F)(F)C(F)(F)C(F)(F)C(F)(F)F` [PFOA, perfluorooctanoic acid]: in data set [2], the apical-to-basolateral permeability (Papp A→B) at 60 min, 1 µM worked out at 3.27 ± 0.45 ×10⁻⁶ cm/s; the apparent permeability from basolateral to apical (Papp B→A) at 60 min, 1 µM was 5.3 ± 0.42 ×10⁻⁶ cm/s; the efflux ratio at 60 min, 1 µM stood at 1.62. In addition, in data set [3], the Papp A→B at 60 min, 1 µM worked out at 4.23 ± 0.41 ×10⁻⁶ cm/s; the Papp B→A at 60 min, 1 µM stood at 5.75 ± 0.97 ×10⁻⁶ cm/s; the efflux ratio at 60 min, 1 µM was determined as 1.36. Besides, in data set [4], the Papp A→B at 60 min, 1 µM amounted to 7.31 ± 0.43 ×10⁻⁶ cm/s; the Papp B→A at 60 min, 1 µM stood at 6.99 ± 0.82 ×10⁻⁶ cm/s; the efflux ratio at 60 min, 1 µM is 0.96.
With `O=S(=O)(O)C(F)(F)C(F)(F)C(F)(F)C(F)(F)C(F)(F)C(F)(F)C(F)(F)C(F)(F)F` [PFOS, perfluorooctane sulfonate], in data set [2], the apparent permeability from apical to basolateral (Papp A→B) at 60 min, 1 µM worked out at 0.63 ± 0.08 ×10⁻⁶ cm/s; the Papp B→A at 60 min, 1 µM came out at 0.82 ± 0.17 ×10⁻⁶ cm/s; the efflux ratio at 60 min, 1 µM was 1.31. For the same compound, in data set [3], the apical-to-basolateral permeability (Papp A→B) at 60 min, 1 µM amounted to 2.88 ± 0.2 ×10⁻⁶ cm/s; the Papp B→A at 60 min, 1 µM turned out to be 1.06 ± 11 ×10⁻⁶ cm/s; the efflux ratio at 60 min, 1 µM was 0.37. Also, in data set [4], the Papp A→B at 60 min, 1 µM was found to be 5.97 ± 0.05 ×10⁻⁶ cm/s; the Papp B→A at 60 min, 1 µM turned out to be 3.31 ± 0.22 ×10⁻⁶ cm/s; the efflux ratio at 60 min, 1 µM was 0.55.
For `CC(C)NCC(O)COc1cccc2ccccc12` (centres unmarked) [Propranolol, propranolol], the apparent permeability from apical to basolateral (Papp A→B) at 60 min, 10 µM in data set [2] came to 26.7 ± 1.4 ×10⁻⁶ cm/s; in data set [3], 11.8 ± 1.07 ×10⁻⁶ cm/s. In addition, the Papp B→A at 60 min, 10 µM in data set [2] came to 17.9 ± 0.93 ×10⁻⁶ cm/s; in data set [3], 8.13 ± 0.12 ×10⁻⁶ cm/s. In addition, in the data set on EpiIntestinal model, the “Average Papp A–B” value is 9.4 ± 5.4^b × 10^–6 cm/s. Moreover, the “Average Papp A - B” value in the data set on Caco-2 model (ref Artursson et al. 1991) is 41.9 ×10⁻⁶ cm/s; with Caco-2 model (ref Ayehunie et al. 2018) it was 12.9 ×10⁻⁶ cm/s; with Caco-2 model (ref Grès et al. 1998) it was 34.4 ×10⁻⁶ cm/s; in the data set with Caco-2 model (ref Logoyda et al. 2018) it was 36.13 ×10⁻⁶ cm/s; in the data set with Caco-2 model (ref Nožinić et al. 2010), 0.12 ×10⁻⁶ cm/s; with Caco-2 model (ref Walgren et al. 1999), 35.3 ×10⁻⁶ cm/s. Moreover, in the data set with Caco-2 model (ref Yazdanian et al. 1998), the “Average Papp A - B” value was 21.8 ×10⁻⁶ cm/s.
In data set [2], `C=C[C@H]1C[N@@]2CC[C@H]1C[C@@H]2[C@@H](O)c1ccnc2ccc(OC)cc12` [Quinidine, quinidine] had a Papp A→B at 60 min, 10 µM of 22.3 ± 0.4 ×10⁻⁶ cm/s and an apparent permeability from basolateral to apical (Papp B→A) at 60 min, 10 µM of 25.5 ± 1.17 ×10⁻⁶ cm/s. Besides, the “Average Papp A–B” value in the data set with EpiIntestinal model is 7.9 ± 2.7^a × 10^–6 cm/s.
In turn, `CC(=O)CC(c1ccccc1)c1c(O)c2ccccc2oc1=O` (centres unmarked) [Warfarin, warfarin] displayed an apical-to-basolateral permeability (Papp A→B) at 60 min, 10 µM in data set [3] of 17.9 ± 1.39 ×10⁻⁶ cm/s. Besides, in data set [3], the Papp B→A at 60 min, 10 µM turned out to be 24.5 ± 0.94 ×10⁻⁶ cm/s. In addition, the “Average Papp A–B” value in the data set on EpiIntestinal model is listed as 36.7 ± 16.8^a × 10^–6 cm/s. The “Average Papp A - B” value with Caco-2 model (ref Artursson et al. 1991) was 38.3 ×10⁻⁶ cm/s; in the data set on Caco-2 model (ref Ayehunie et al. 2018), 28.6 ×10⁻⁶ cm/s; in the data set with Caco-2 model (ref Gschwind et al. 2013), 22.7 ×10⁻⁶ cm/s; with Caco-2 model (ref Yazdanian et al. 1998) it was 21.1 ×10⁻⁶ cm/s.
